Results from patent publication EP4725954A1, “MODIFIED PEPTIDES SUCH AS POLYPEPTIDES LA-19 AND TM-19 HAVING ANTI-AGING AND REPAIRING EFFECTS AND USE THEREOF” (Anhui Dexin Huahai Biological Technology Co. Ltd., priority 2023, dated 2025).
Where two headings read alike, the source gives them in different places. Where no end group is shown, it is not given here.

Assays:
[1] = system: Human keratinocytes (HaCaT cells); experiment: Cytotoxicity test of the polypeptides on keratinocytes (CCK-8); conditions: in words; for effect on cell growth: compared to the blank group
Experimental: (§3) Human keratinocytes (HaCaT cells, Nanjing Saihongrui Biotechnology Co., Ltd.).
(§4) Cell culture conditions: constant temperature and humidity incubator (37°C, 95% air, 5% carbon dioxide), 90% dulbecco's modified eagle medium (DMEM) high-glucose medium + 10% fetal bovine serum (Nanjing BioChannel Biotechnology Co., Ltd).
(§5) A cell culture flask was taken out from the cell incubator, observed under a microscope, and the cells were in the logarithmic growth phase. In a clean bench, the medium was discarded, the cells were rinsed with 2 mL of phosphate buffer saline (PBS) and discarded; after repeating the above process once, 2 mL of 0.25% trypsin was added for digestion. The digestion was terminated by adding a corresponding volume of serum-containing medium, and the cells were transferred to a 15 mL conical centrifuge tube and centrifuged at 1000 rpm for 5 minutes. The serum-containing medium was resuspended in a resuspension volume of 2 mL. The cells were counted and calculated. The cells were then diluted, and plated; then the diluted cell suspension was taken, then the 96-well plate was paved with 10^4 cells/well, and the edge wells were filled with PBS. The well plate was taken out from the cell incubator, the medium was discarded, the well-plate of the administration group was added with the corresponding drugs and placed into the cell incubator for incubation for 48 hours. On the day of detection, the 96-well plate was taken out from the cell incubator, and added with 10 µL of a CCK-8 reagent per well in the clean bench, and then quickly placed into the cell incubator for 60 minutes, and the absorbance was measured with a microplate reader and the absorbance was measured at OD 450 nm. The average reading of the blank group was taken, and the numerical value of each group was divided by the average value to obtain the change in cell viability. Results are expressed as Mean ± SEM, compared with the blank group, *P<0.05 denotes a significant difference, **P<0.01, ***P<0.001, and ****P<0.0001 denote very significant differences.

[2] = system: Human keratinocytes (HaCaT cells)
Experimental: as §3, §4, §5

TNF-α = experiment: Anti-inflammatory activity test on keratinocytes: TNF-α ELISA; assay type: cell-based, Human; conditions: 10 µM; UVB 30 mJ/cm^2, HaCaT supernatant; blank 2.890, model 10.812; Mean ± SEM
Experimental: (§1) Interleukin-6 ELISA assay kit (Shanghai Beyotime Biotechnology Co., Ltd.); tumor necrosis factor α ELISA assay kit (Shanghai Beyotime Biotechnology Co., Ltd.); 6-well plate (Wuxi NEST Biotechnology Co., Ltd.); and palmitoyl tetrapeptide-7 (Shenzhen Jianyuan Pharmaceutical Technology Co., Ltd.). Other experimental materials and instruments are the same as those in Examples 1, 2, and 3.
(§2) The cells were counted and calculated. […] After 24 hours of incubation, cell UV modeling was performed. The UVB lamp tube was turned on, and the radiation intensity was measured with a UV irradiance meter. When the radiation intensity reached 500 µW/cm^2, the uncovered 6-well plate was placed and irradiated for 1 minute such that the radiation dose was up to 30 mJ/cm^2. At the end of the radiation, the 6-well plate was covered and placed into the cell incubator.

IL-6 = experiment: Anti-inflammatory activity test on keratinocytes: IL-6 ELISA; assay type: cell-based, Human; conditions: 10 µM; UVB 30 mJ/cm^2, HaCaT supernatant; blank 10.619, model 18.622; Mean ± SEM
Experimental: as §1, §2

Substance	effect on cell growth [1]	other results
Ac-LQSSLRALRQMGGGTKAAA [P6]	do not significantly inhibit cell growth	
Ac-LQTSLRALRQIGGGTKAAA [P9]	do not significantly inhibit cell growth	
GGGLQSSLRALRQM [P4]	do not significantly inhibit cell growth	
LQSSLRALRQM [P5]		effect on cell growth [2]: do not significantly inhibit cell growth
LQSSLRALRQMGGG [P3]	do not significantly inhibit cell growth	
LQSSLRALRQMGGGTKAAA [LA-19]	do not significantly inhibit cell growth	toxicity to keratinocytes [1]: no obvious toxicity to keratinocytes
LQSSLRALRQMGGGTKAAA-NH2 [P7]	do not significantly inhibit cell growth	
LQTSLRALRQIGGGTKAAA [P8]	do not significantly inhibit cell growth	
TKAAA [Acein, reference compound]	do not significantly inhibit cell growth	
TKAAAGGGLQSSLRALRQM [TM-19]	slightly inhibit cell growth at low concentrations but promote cell proliferation at high concentrations	
TKAAAGGGLQTSLRALRQI [P10]	do not significantly inhibit cell growth	
palmitoyl tetrapeptide-7		TNF-α activity (pg/mgprot) (TNF-α): 6.832±2.461 pg/mgprot; IL-6 activity (pg/mgprot) (IL-6): 13.901±1.356 pg/mgprot
